Test results reported in ChEMBL document CHEMBL1150231, “New sesquiterpene carbonimidic dichlorides and related compounds from the sponge Stylotella aurantium” (J Nat Prod, 2001).

What was measured:
Type in all cases: functional, cell-based
[1] = tested on: A549; test: Cytotoxicity against human A549 cells
[2] = tested on: P388; test: Cytotoxicity against mouse P388 cells
[3] = tested on: HT-29; test: Cytotoxicity against human HT-29 cells
[4] = tested on: SK-MEL-28; test: Cytotoxicity against human SK-MEL-28 cells

Measured: IC50

CC1(C)[C@@H](Cl)[C@@H](O)C[C@]2(C)C/C(=C\C=O)CC[C@@H]12
0.1 µg/mL: all assays above

C=C(CC[C@@H]1C(=C)CC[C@H](Cl)C1(C)C)C(Cl)CN=C(Cl)Cl (some centres not stated)
0.1 µg/mL: all assays above

CC1(C)[C@@H](Cl)[C@@H](O)C[C@]2(C)C/C(=C/C=O)CC[C@@H]12
0.1 µg/mL: all assays above
